Reference: patent US20250304563A1, “ACTIVATORS OF EFFECTOR T CELLS” (Orum Therapeutics, Inc., priority 2022, published 2025)

Assays:
Human primary T cells [1] = experiment: T cell activation: secreted IFN-y; format: cell-based; conditions: 48 hours, fold over background normalized to Compound 141A; for IFN-y 1 nM: 1 nM compound; for IFN-y 10 nM: 10 nM compound; for IFN-y 100 nM: 100 nM compound
Description: (§1) Human primary T cells were isolated from commercially available frozen peripheral blood mononuclear cells (HemaCare Corporation) or from fresh LeukoPaks (Research Blood Components). T cells were isolated through depletion of non-T cells using negative selection kit according to the manufacturer's protocol (Miltenyi Biotec, Human Pan T Cell Isolation Kit, 130-096-535). Isolated cells were cultured overnight at 37° C. with 5% CO2 and plated at 1×10^5 cells per well in XVivo-15 serum-free media (Lonza, 04-418Q) into 96 well plates coated with anti-CD3 (OKT3) antibody (ThermoFisher, 16-0037-85). To coat the plates for T cell capture, anti-CD3 antibody was diluted in PBS at 10 μg/mL and 100 μl added to each well. Plates were incubated at 4° C. overnight or at 37° C. for 2 hours and washed once with PBS before use. Serial dilutions of each compound were added in duplicates to the T cells to assess their effect on T cell activation. T cells treated with 5 μg/mL of CD28 antibody (ThermoFisher, 16-0289-85) or T cells stimulated by CD3 only were used as a control. Plates were incubated with the Cbl-b inhibitors for 48 hours at 37° C. with 5% CO2, and supernatants were subsequently analyzed for levels of the activation induced secreted cytokines IL-2 or IFN-y (BD Biosciences CBA Flex Beads, 558269, 558270). T cells were additionally stained with anti-CD69 antibody (Invitrogen, 12-0699-42 which labels a T cell activation associated membrane protein to and surface expression was measured by flow cytometry (ThermoFisher Attune NxT).
(§2) To control for natural inter-donor variability in T cell responses intrinsic to using primary human donor derived cells, secreted IL-2 and IFN-y measurements for each test compound were reported as the fold increase of the compound treated levels over background (antiCD3/CD28 treatment only) normalized to the values obtained for Compound 141A. Results for compound treatment-induced changes in CD69 levels are similarly reported as the fold increase due to compound treatment over anti-CD3 stimulated background only, normalized to values obtained for Compound 141A.
Normalized T cell IFN-y responses were sorted into ranges as follows: fold over background between 1.10 and 2.00: range “A”, values between 0.31 and 1.00: range “B;” values between 0.10 and 0.30: range “C”, and values between 0.01 and 0.09: range “D.”

Human primary T cells [2] = experiment: T cell activation: CD69 surface expression by flow cytometry; format: cell-based; conditions: fold over anti-CD3 stimulated background normalized to Compound 141A; for CD69 10 nM: 10 nM compound; for CD69 100 nM: 100 nM compound
Description: as §1, §2
Similarly, bins for normalized CD69 levels were sorted into ranges as follows: fold over background values between 1.11 and 1.6: range “X”, values between 0.81 and 1.10: range “A”; values between 0.61 and 0.80: range “B;” values between 0.30 and 0.60: range “C”.

Human primary T cells [3] = experiment: T cell activation: secreted IL-2; format: cell-based; conditions: 48 hours, fold over background normalized to Compound 141A; for IL-2 1 nM: 1 nM compound; for IL-2 10 nM: 10 nM compound; for IL-2 100 nM: 100 nM compound
Description: as §1, §2
Normalized T cell IL-2 responses were sorted into ranges as follows: fold over background values between 1.41 and 1.8: range “X”, between 0.80 and 1.40: range “A”, values between 0.31 and 0.79: range “B” values between 0.10 and 0.30: range “C”, values between 0.01 and 0.09: range “D.”

[4] = target: Cbl-b (36-427 aa truncated form, N-terminus Avi-tag) (Homo sapiens (Human), UniProt Q13191); experiment: Cbl-b binding: TR-FRET displacement of BODIPY-FL probe
Chain of Cbl-b (36-427 aa truncated form, N-terminus Avi-tag) (Q13191 36-427): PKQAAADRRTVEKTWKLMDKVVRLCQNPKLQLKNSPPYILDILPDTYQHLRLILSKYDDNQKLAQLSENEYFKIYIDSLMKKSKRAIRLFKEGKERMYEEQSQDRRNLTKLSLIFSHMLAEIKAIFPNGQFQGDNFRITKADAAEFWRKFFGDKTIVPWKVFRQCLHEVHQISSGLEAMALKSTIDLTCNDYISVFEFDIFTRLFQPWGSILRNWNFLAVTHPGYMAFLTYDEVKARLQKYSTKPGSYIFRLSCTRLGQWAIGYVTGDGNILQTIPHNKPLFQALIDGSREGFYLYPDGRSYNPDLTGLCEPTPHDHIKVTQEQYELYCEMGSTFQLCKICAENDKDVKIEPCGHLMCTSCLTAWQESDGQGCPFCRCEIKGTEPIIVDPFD
Description: Compounds were assessed for binding activity to Cbl-b by their ability to compete with and displace a probe comprised of BODIPY-FL fluorophore conjugated to a Cbl-b inhibitor (see Example 54 in WO2020264398). In the assay, a 36-427 aa truncated form of Cbl-b with an N-terminus Avi-tag was incubated 20 mM HEPES pH 7.5, 150 mM NaCl, 0.01% Triton X-100, 0.1% BSA, 0.5 mM TCEP buffer with streptavidin-terbium (Cisbio). After one hour of incubation at room temperature, 1 uM each of fluorescent probe and compound were combined with the reaction mixture. Compounds with Cbl-b binding activity competitively displace the fluorophore tagged inhibitor thereby disrupting the FRET signal from the terbium-BODIPY-FL complex. The reaction mixtures were incubated for one additional hour at room temperature to allow for competition between inhibitor and candidate compounds to occur. The time resolved FRET (TR-FRET) signal was then read at 520/620 […] (excitation/emission) using a Spectramax M5e plate reader (Molecular Devices) to measure probe displacement. Compounds with Cbl-b binding activity had decreased FRET signal owing to disruption of the terbium-BODIPY-FL FRET complex. Standard methods in PRISM were used to calculate the compound IC50 values from the experimental data.

| Molecule | IC50 [4] | IFN-y 1 nM (Human primary T cells [1]) | IFN-y 10 nM (Human primary T cells [1]) | IFN-y 100 nM (Human primary T cells [1]) | CD69 10 nM (Human primary T cells [2]) | CD69 100 nM (Human primary T cells [2]) | IL-2 1 nM (Human primary T cells [3]) | IL-2 10 nM (Human primary T cells [3]) | IL-2 100 nM (Human primary T cells [3]) |
| --- | --- | --- | --- | --- | --- | --- | --- | --- | --- |
| C[C@H]1CCCN(Cc2cc3c(c(C(F)(F)F)c2)CN(c2cc(C4(Cc5nncn5C)COC4)cc(OCCO)n2)C3=O)C1 [Compound 100, 2-[6-(2-hydroxyethoxy)-4-{3-[(4-methyl-1,2,4-triazol-3-yl)methyl]oxetan-3-yl}pyridin-2-yl]-6-{[(3S)-3-methylpiperidin-1-yl]methyl}-4-(trifluoromethyl)-3H-isoindol-1-one] | – | C (values between 0.10 and 0.30: range “C”) | B (values between 0.31 and 1.00: range “B;”) | B (values between 0.31 and 1.00: range “B;”) | C (values between 0.30 and 0.60: range “C”) | A (values between 0.81 and 1.10: range “A”) | C (values between 0.10 and 0.30: range “C”) | B (values between 0.31 and 0.79: range “B”) | B (values between 0.31 and 0.79: range “B”) |
| CNCC(=O)Nc1cc(C2(Cc3nncn3C)COC2)cc(N2Cc3c(cc(CN4CCC[C@H](C)C4)cc3C(F)(F)F)C2=O)n1 [Compound 101, N-(4-{3-[(4-methyl-1,2,4-triazol-3-yl)methyl]oxetan-3-yl}-6-(6-{[(3S)-3-methylpiperidin-1-yl]methyl}-1-oxo-4-(trifluoromethyl)-3H-isoindol-2-yl)pyridin-2-yl)-2-(methylamino)acetamide; formic acid] | 5.01 to 20 nM | – | – | – | – | – | – | – | – |
| CNCc1cc(C2(Cc3nncn3C)COC2)cc(N2Cc3c(cc(CN4CCC[C@H](C)C4)cc3C(F)(F)F)C2=O)n1 [Compound 104, 2-(4-{3-[(4-methyl-1,2,4-triazol-3-yl)methyl]oxetan-3-yl}-6-[(methylamino)methyl]pyridin-2-yl)-6-{[(3S)-3-methylpiperidin-1-yl]methyl}-4-(trifluoromethyl)-3H-isoindol-1-one; trifluoroacetic acid] | 100 to 1000 nM | – | – | – | – | – | – | – | – |
| CSC(C)(C)CNc1cc(C2(Cc3nncn3C)COC2)cc(N2Cc3c(cc(CN4CCC[C@H](C)C4)cc3C(F)(F)F)C2=O)n1 [Compound 105, 2-(4-{3-[(4-methyl-1,2,4-triazol-3-yl)methyl]oxetan-3-yl}-6-{[2-methyl-2-(methylsulfanyl)propyl]amino}pyridin-2-yl)-6-{[(3S)-3-methylpiperidin-1-yl]methyl}-4-(trifluoromethyl)-3H-isoindol-1-one; formic acid] | 100 to 1000 nM | – | – | – | – | – | – | – | – |
| CCOc1cc(C2(Cc3nncn3C)COC2)cc(N2Cc3c(cc(CN4CCC[C@H](C)C4)cc3C(F)(F)F)C2=O)n1 [Compound 146] | – | B (values between 0.31 and 1.00: range “B;”) | A (fold over background between 1.10 and 2.00: range “A”) | A (fold over background between 1.10 and 2.00: range “A”) | A (values between 0.81 and 1.10: range “A”) | A (values between 0.81 and 1.10: range “A”) | B (values between 0.31 and 0.79: range “B”) | B (values between 0.31 and 0.79: range “B”) | A (between 0.80 and 1.40: range “A”) |
| CCNc1cc(C2(Cc3nncn3C)COC2)cc(N2Cc3c(cc(CN4CCC[C@H](C)C4)cc3C(F)(F)F)C2=O)n1 [Compound 147] | – | B (values between 0.31 and 1.00: range “B;”) | A (fold over background between 1.10 and 2.00: range “A”) | A (fold over background between 1.10 and 2.00: range “A”) | A (values between 0.81 and 1.10: range “A”) | A (values between 0.81 and 1.10: range “A”) | B (values between 0.31 and 0.79: range “B”) | B (values between 0.31 and 0.79: range “B”) | A (between 0.80 and 1.40: range “A”) |
| C[C@H]1CCCN(Cc2cc3c(c(C(F)(F)F)c2)CN(c2cccc([C@]4(c5nncn5C)C[C@@H](C)C4)c2)C3=O)C1 [Compound 148] | – | B (values between 0.31 and 1.00: range “B;”) | A (fold over background between 1.10 and 2.00: range “A”) | A (fold over background between 1.10 and 2.00: range “A”) | A (values between 0.81 and 1.10: range “A”) | A (values between 0.81 and 1.10: range “A”) | B (values between 0.31 and 0.79: range “B”) | A (between 0.80 and 1.40: range “A”) | A (between 0.80 and 1.40: range “A”) |
| (3S)-1-[6-(2,5-dioxopyrrol-1-yl)hexyl]-1-({2-[6-(ethylsulfanyl)-4-{3-[(4-methyl-1,2,4-triazol-3-yl)methyl]oxetan-3-yl}pyridin-2-yl]-3-oxo-7-(trifluoromethyl)-1H-isoindol-5-yl}methyl)-3-methylpiperidin-1-ium [Compound 209] | – | C (values between 0.10 and 0.30: range “C”) | C (values between 0.10 and 0.30: range “C”) | B (values between 0.31 and 1.00: range “B;”) | C (values between 0.30 and 0.60: range “C”) | B (values between 0.61 and 0.80: range “B;”) | C (values between 0.10 and 0.30: range “C”) | C (values between 0.10 and 0.30: range “C”) | B (values between 0.31 and 0.79: range “B”) |

Continued, in another order:

| IC50 [4] | Molecule | IFN-y 1 nM (Human primary T cells [1]) | IFN-y 10 nM (Human primary T cells [1]) | IFN-y 100 nM (Human primary T cells [1]) | CD69 10 nM (Human primary T cells [2]) | CD69 100 nM (Human primary T cells [2]) | IL-2 1 nM (Human primary T cells [3]) | IL-2 10 nM (Human primary T cells [3]) | IL-2 100 nM (Human primary T cells [3]) |
| --- | --- | --- | --- | --- | --- | --- | --- | --- | --- |
| 1 to 5 nM | C[C@H]1CCCN(Cc2cc3c(c(C(F)(F)F)c2)CN(c2cc(C4(Cc5nncn5C)COC4)cc(NCCS)n2)C3=O)C1 [Compound 108, 2-(4-{3-[(4-methyl-1,2,4-triazol-3-yl)methyl]oxetan-3-yl}-6-[(2-sulfanylethyl)amino]pyridin-2-yl)-6-{[(3S)-3-methylpiperidin-1-yl]methyl}-4-(trifluoromethyl)-3H-isoindol-1-one] | – | – | – | – | – | – | – | – |
| 100 to 1000 nM | C#CCNc1cc(C2(Cc3nncn3C)COC2)cc(N2Cc3c(cc(CN4CCC[C@H](C)C4)cc3C(F)(F)F)C2=O)n1 [Compound 109, (S)-2-(4-(3-((4-methyl-4H-1,2,4-triazol-3-yl)methyl)oxetan-3-yl)-6-(prop-2-yn-1-ylamino)pyridin-2-yl)-6-((3-methylpiperidin-1-yl)methyl)-4-(trifluoromethyl)isoindolin-1-one] | – | – | – | – | – | – | – | – |
| 100 to 1000 nM | CCNc1cc([C@]2(c3nncn3C)C[C@@H](C)C2)nc(N2Cc3c(cc(CN4CCC[C@H](C)C4)cc3C(F)(F)F)C2=O)n1 [Compound 114A, 2-[4-(ethylamino)-6-[(1s,3R)-3-methyl-1-(4-methyl-1,2,4-triazol-3-yl)cyclobutyl]pyrimidin-2-yl]-6-{[(3S)-3-methylpiperidin-1-yl]methyl}-4-(trifluoromethyl)-3H-isoindol-1-one] | – | – | – | – | – | – | – | – |
| 100 to 1000 nM | CCNc1cc([C@]2(c3nncn3C)C[C@H](C)C2)nc(N2Cc3c(cc(CN4CCC[C@H](C)C4)cc3C(F)(F)F)C2=O)n1 [Compound 114B, 2-[4-(ethylamino)-6-[(1r,3S)-3-methyl-1-(4-methyl-1,2,4-triazol-3-yl)cyclobutyl]pyrimidin-2-yl]-6-{[(3S)-3-methylpiperidin-1-yl]methyl}-4-(trifluoromethyl)-3H-isoindol-1-one] | – | – | – | – | – | – | – | – |
